Molecular target: T1, KCC2 (Homo sapiens, UniProt Q9H2X9)
T1 construct: expressed in transfected cells; host or cells: HEK-293 (ATCC CRL-1573)
T1 sequence (Q9H2X9 1-1116 isoform Q9H2X9-2): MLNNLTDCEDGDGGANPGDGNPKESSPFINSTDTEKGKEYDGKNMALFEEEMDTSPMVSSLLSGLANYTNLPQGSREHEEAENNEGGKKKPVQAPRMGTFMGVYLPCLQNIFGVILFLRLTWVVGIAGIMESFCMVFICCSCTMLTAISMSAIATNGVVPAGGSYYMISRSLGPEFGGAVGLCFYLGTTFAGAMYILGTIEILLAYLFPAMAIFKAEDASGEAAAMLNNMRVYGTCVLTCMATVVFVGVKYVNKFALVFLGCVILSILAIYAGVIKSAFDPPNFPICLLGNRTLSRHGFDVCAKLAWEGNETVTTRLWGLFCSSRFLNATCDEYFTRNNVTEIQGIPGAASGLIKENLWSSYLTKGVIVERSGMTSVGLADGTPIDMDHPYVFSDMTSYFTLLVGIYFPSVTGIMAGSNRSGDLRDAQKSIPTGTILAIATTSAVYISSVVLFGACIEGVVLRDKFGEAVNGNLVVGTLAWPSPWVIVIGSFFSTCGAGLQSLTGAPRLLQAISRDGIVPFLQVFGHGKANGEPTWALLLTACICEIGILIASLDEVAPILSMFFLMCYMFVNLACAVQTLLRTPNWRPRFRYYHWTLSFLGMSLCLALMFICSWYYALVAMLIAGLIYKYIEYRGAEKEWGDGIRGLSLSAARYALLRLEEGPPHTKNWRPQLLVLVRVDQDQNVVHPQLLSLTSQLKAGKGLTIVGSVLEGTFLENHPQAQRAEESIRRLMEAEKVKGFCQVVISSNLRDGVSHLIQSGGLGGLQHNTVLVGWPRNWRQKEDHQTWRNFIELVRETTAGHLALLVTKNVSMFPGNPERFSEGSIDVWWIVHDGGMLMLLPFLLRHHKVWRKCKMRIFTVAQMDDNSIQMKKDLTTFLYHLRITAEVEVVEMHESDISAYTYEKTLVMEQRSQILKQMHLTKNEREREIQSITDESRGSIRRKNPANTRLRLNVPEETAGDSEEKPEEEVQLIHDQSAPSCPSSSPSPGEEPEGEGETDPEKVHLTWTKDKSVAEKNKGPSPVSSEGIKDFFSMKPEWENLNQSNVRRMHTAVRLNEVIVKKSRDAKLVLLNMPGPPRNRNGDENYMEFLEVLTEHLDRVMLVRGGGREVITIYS
Test: Biotinylation, plasma membrane level of KCC2 in HEK-293 cells
Format: cell-based
Settings: 15 min, surface/total KCC2
Procedure: Cell Culture and biotinylation. HEK-293 cells were purchased from ATCC (CRL-1573) and transfected with human KCC2 and GFP expression plasmids using Lipofectamine 2000. Cells were utilized for experimentation 48-72 h following transfection. Cells were biotinylated at 4° C. using NHS-Biotin. Following lysis and purification on immobilized avidin beads, cell surface and total fractions were subject to immunoblotting as outlined previously (Conway et al., 2017, supra).
The reliability of the biotinylation procedure was assessed via immunoblotting with antibodies against the cytosolic protein actin. Actin was present in the total lysates but was absent from the surface fractions (FIG. 2C).

SMILES: C[C@@H]1CN(c2nc3c(c(Nc4ccc(C5CCCCC5)cc4)n2)COC3)CCO1 [Compound A, (R)—N-(4-cyclohexylphenyl)-2-(2-methylmorpholino)-5,7-dihydrofuro[3,4-d]pyrimidin-4-amine]
- level of KCC2 on the plasma membrane (0.3 μM): 94.5±8.4 % of control
- level of KCC2 on the plasma membrane (3 μM): 104.7±8.4 % of control
